According to patent publication US20220331414A1, “LIPID COMPOUNDS AND LIPID NANOPARTICLE COMPOSITIONS” (Suzhou Abogen Biosciences Co., Ltd., priority 2020, published 2022):

Columns and labels:
[1] = Lipid nanoparticle size and polydispersity by dynamic light scattering; type: physicochemical; settings: LNP of cationic lipid/DSPC/cholesterol/PEG-lipid 50:10:38.5:1.5 with mRNA
Method: (§1) Briefly, a cationic lipid provided herein, DSPC, cholesterol, and PEG-lipid were solubilized in ethanol at a molar ratio of 50:10:38.5:1.5, and mRNA were diluted in 10 to 50 mM citrate buffer, pH=4. The LNPs were prepared at a total lipid to mRNA weight ratio of approximately 10:1 to 30:1 by mixing the ethanolic lipid solution with the aqueous mRNA solution at a volume ratio of 1:3 using a microfluidic apparatus, total flow rate ranging from 9-30 mL/min. Ethanol were thereby removed and replaced by DPBS using dialysis. Finally, the lipid nanoparticles were filtered through a 0.2 μm sterile filter.
(§2) Lipid nanoparticle size were determined by dynamic light scattering using a Malvern Zetasizer Nano ZS (Malvern UK) using a 173° backscatter detection mode. The encapsulation efficiency of lipid nanoparticles were determined using a Quant-it Ribogreen RNA quantification assay kit (Thermo Fisher Scientific, UK) according to the manufacturer's instructions.

[2] = Encapsulation efficiency of lipid nanoparticles (Quant-it Ribogreen RNA assay); type: physicochemical
Method: as §1, §2

[3] = Apparent pKa of LNP formulations by TNS fluorescence assay; settings: LNP cationic lipid/DSPC/cholesterol/DMG-PEG 50/10/38.5/1.5 mol %, pH 3 to 9
Method: TNS was prepared as a 300 uM stock solution in distilled water. LNP formulations were diluted to 0.1 mg/ml total lipid in 3 mL of buffered solutions containing 50 mM sodium citrate, 50 mM sodium phosphate, 50 mM sodium borate, and 30 mM sodium chloride where the pH ranged from 3 to 9. An aliquot of the TNS solution was added to give a final concentration of 0.1 mg/ml and following vortex mixing fluorescence intensity was measured at room temperature in a Molecular Devices Spectramax iD3 spectrometer using excitation and mission wavelengths of 325 nm and 435 nm. A sigmoidal best fit analysis was applied to the fluorescence data and the pKa value was measured as the pH giving rise to half—maximal fluorescent intensity.

[4] = LNP of cationic lipid/DSPC/cholesterol/PEG-lipid 50:10:38.5:1.5 with mRNA

Structure (SMILES) | polydispersity [1] | size (nm) [1] [nm] | Encapsulation Efficiency [2, 4] [%] | Apparant Pka [3] | Encapsulation Efficiency ([2]; cell printed without % sign)
CCCCCCCCCCC(CCCCCCCC)COP(=O)(NCCN(CC)CC)OCC(CCCCCCCC)CCCCCCCCCC (stereo not shown) [Compound 78] | 0.234 | 63.03 | 95.2 | 5.969 | 
CCCCCCCCC(CCCCCC)COP(=O)(NCCN(CCO)C1CCCC1)OCC(CCCCCC)CCCCCCCC (stereo not shown) [Compound 58] | 0.057 | 97.61 | 88.8 | 5.681 | 
CCCCCCCCCOP(=O)(NCCCCN(C)C)OCCCCCCCCC [Compound 1] | 0.074 | 54.18 | 90.3 | 7.65 | 
CCCCCCCCC(CCCCCC)COP(=O)(NCCCN1CCC1)OCC(CCCCCC)CCCCCCCC (stereo not shown) [Compound 23] | 0.234 | 57.36 | 100.4 | 7.43 | 
CCCCCCCCC(CCC)COP(=O)(NCCN1CCCC1)OCC(CCC)CCCCCCCC (stereo not shown) [Compound 71] | 0.108 | 69.18 | 94.4 | 7.104 | 
CCCCCCCCCCCCCOP(=O)(OCCCCCCCCCCCCC)N1CC2(CCN(C)CC2)C1 [Compound 20] | 0.068 | 92.15 | 94.2 | 5.81 | 
CCCCCCCCC(CCCCCC)COP(=O)(NCCN1CC2CC2C1)OCC(CCCCCC)CCCCCCCC (stereo not shown) [Compound 62] | 0.338 | 56.35 | 89.9 | 5.063 | 
CCCCCCCCCCCCCOP(=O)(NCCN1CCCCC1)OCCCCCCCCCCCCC [Compound 13] | 0.034 | 130.5 | 96.5 | 7.79 | 
CCCCCCCCC(CCCCCCCC)COP(=O)(NCCN(CC)CC)OCC(CCCCCC)CCCCCC (stereo not shown) [Compound 90] | 0.242 | 56.48 | 85.7 | 5.526 | 
CCCCCCCCCOP(=O)(NCCN1CCCCC1)OCCCCCCCC(=O)OC(CCCCCCCC)CCCCCCCC (stereo not shown) [Compound 33] | 0.091 | 128.5 | 98.2 | 7.74 | 
CCCCCCCCC(CCCCCC)COP(=O)(NCCN1CCOCC1)OCC(CCCCCC)CCCCCCCC (stereo not shown) [Compound 30] | 0.197 | 71.91 | 16.8 | 3.88 | 
CCCCCCCCC(CCCCCC)COP(=O)(NCCN(CCO)C1CCCCC1)OCC(CCCCCC)CCCCCCCC (stereo not shown) [Compound 47] | 0.071 | 73.53 |  | 5.27 | 0.864
CCCCCCCCC(CCCCCC)COP(=O)(NCCCN1CCCCC1)OCC(CCCCCC)CCCCCCCC (stereo not shown) [Compound 27] | 0.135 | 83.11 | 75.7 | 5.18 | 
CCCCCCCCC(CCCCCC)COP(=O)(NCCN(C)CCO)OCC(CCCCCC)CCCCCCCC (stereo not shown) [Compound 46] | 0.114 | 54.72 | 99.0 | 6.85 | 
CCCCCCCCC(CCCCCCCC)COP(=O)(NCCN1CCCC1)OCC(CCCCCCCC)CCCCCCCC [Compound 81] | 0.218 | 56.41 | 92.7 | 5.661 | 

Now from value to compound:

polydispersity [1] | size (nm) [1] [nm] | Encapsulation Efficiency [2, 4] [%] | Apparant Pka [3] | Encapsulation Efficiency ([2]; cell printed without % sign) | Structure (SMILES)
0.057 | 109.7 | 52.3 | 5.49 |  | CCCCCCCCC(CCCCCC)COP(=O)(NCCCN1CCCC1)OCC(CCCCCC)CCCCCCCC (stereo not shown) [Compound 25]
0.154 | 73.94 | 95.6 | 5.86 |  | CCCCCCCCC(CCCCC)COP(=O)(NCCN(CC)CC)OCC(CCCCC)CCCCCCCC (stereo not shown) [Compound 72]
0.329 | 90.86 | 95.1 | 5.679 |  | CCCCCCCCC(CCCCCC)COP(=O)(NCCN(CCC)CCO)OCC(CCCCCC)CCCCCCCC (stereo not shown) [Compound 53]
0.27 | 68.19 | 93.6 | 4.99 |  | CCCCCCCCC(CCCCCC)COP(=O)(NCCN1CCCCC1)OCC(CCCCCC)CCCCCCCC (stereo not shown) [Compound 26]
0.085 | 95.97 | 94.1 | 6.133 |  | CCCCCCC(CCCCCC)COP(=O)(NCCN(CC)CC)OCC(CCCCCC)CCCCCC [Compound 65]
0.148 | 53.85 | 97.0 | 6.892 |  | CCCCCCCCC(CCCCCC)COP(=O)(NCCN1CCC(O)C1)OCC(CCCCCC)CCCCCCCC (stereo not shown) [Compound 63]
0.187 | 56.41 | 93.2 | 8.10 |  | CCCCCCCCCOP(=O)(OCCCCCCCCC)OCCCN(C)C [Compound 8]
0.204 | 77.49 | 48.1 | 4.92 |  | CCCCCCCCC(CCCCCC)COP(=O)(NCCN1CCCCCC1)OCC(CCCCCC)CCCCCCCC (stereo not shown) [Compound 28]
0.138 | 70.5 | 86.9 | 6.097 |  | CCCCCCC(CCCCCC)COP(=O)(NCCN(CC)CC)OCC(CCCCCC)CCCCCC [Compound 82]
0.191 | 58.02 | 95.1 | 6.47 |  | CCCCCCCCC(CCCCCC)COP(=O)(NCCN(CC)CC)OCC(CCCCCC)CCCCCCCC (stereo not shown) [Compound 49]
0.059 | 104.3 | 73.6 | 5.90 |  | CCCCCCCCCCCCCOP(=O)(NCCN1CCOCC1)OCCCCCCCCCCCCC [Compound 15]
0.132 | 62.03 | 90.9 | 5.615 |  | CCCCCCCCC(CCCCCC)COP(=O)(NCCN(CCO)CCCCC)OCC(CCCCCC)CCCCCCCC (stereo not shown) [Compound 55]
0.187 | 51.72 | 94.0 | 5.17 |  | CCCCCCCCC(CCCCCCCC)OC(=O)CCCCCCCOP(=O)(NCCCCN(C)C)OCCCCCCC (stereo not shown) [Compound 44]
0.408 | 69.38 | 100.0 | 6.52 |  | CCCCCCCCCCCCCOP(=O)(NCCCN(C)C)OCCCCCCCC(=O)OC(CCCCCCCC)CCCCCCCC (stereo not shown) [Compound 39]
0.092 | 107.7 | 81.3 | 8.53 |  | CCCCCCCCCCCCCCOP(=O)(NCCCN(C)C)OCCCCCCCCCCCCCC [Compound 11]
0.101 | 79.13 | 98.7 | 7.37 |  | CCCCCCCCC(CCCCCC)COP(=O)(NCCCCN(C)C)OCC(CCCCCC)CCCCCCCC (stereo not shown) [Compound 22]
